Results taken from US6495525B1, “VLA-4 inhibitor: oMePUPA-V” (Biogen, Inc., priority 1998, dated 2002).

Tests used:
α4β7 = target: T1, α4β7 (Homo sapiens, UniProt P13612+P26010); assay: VCAM-Ig Direct Binding Assay on JY cells (α4β7)
T1 construct: endogenous in cells; host or cells: JY cells
T1 sequence (P13612 34-1032): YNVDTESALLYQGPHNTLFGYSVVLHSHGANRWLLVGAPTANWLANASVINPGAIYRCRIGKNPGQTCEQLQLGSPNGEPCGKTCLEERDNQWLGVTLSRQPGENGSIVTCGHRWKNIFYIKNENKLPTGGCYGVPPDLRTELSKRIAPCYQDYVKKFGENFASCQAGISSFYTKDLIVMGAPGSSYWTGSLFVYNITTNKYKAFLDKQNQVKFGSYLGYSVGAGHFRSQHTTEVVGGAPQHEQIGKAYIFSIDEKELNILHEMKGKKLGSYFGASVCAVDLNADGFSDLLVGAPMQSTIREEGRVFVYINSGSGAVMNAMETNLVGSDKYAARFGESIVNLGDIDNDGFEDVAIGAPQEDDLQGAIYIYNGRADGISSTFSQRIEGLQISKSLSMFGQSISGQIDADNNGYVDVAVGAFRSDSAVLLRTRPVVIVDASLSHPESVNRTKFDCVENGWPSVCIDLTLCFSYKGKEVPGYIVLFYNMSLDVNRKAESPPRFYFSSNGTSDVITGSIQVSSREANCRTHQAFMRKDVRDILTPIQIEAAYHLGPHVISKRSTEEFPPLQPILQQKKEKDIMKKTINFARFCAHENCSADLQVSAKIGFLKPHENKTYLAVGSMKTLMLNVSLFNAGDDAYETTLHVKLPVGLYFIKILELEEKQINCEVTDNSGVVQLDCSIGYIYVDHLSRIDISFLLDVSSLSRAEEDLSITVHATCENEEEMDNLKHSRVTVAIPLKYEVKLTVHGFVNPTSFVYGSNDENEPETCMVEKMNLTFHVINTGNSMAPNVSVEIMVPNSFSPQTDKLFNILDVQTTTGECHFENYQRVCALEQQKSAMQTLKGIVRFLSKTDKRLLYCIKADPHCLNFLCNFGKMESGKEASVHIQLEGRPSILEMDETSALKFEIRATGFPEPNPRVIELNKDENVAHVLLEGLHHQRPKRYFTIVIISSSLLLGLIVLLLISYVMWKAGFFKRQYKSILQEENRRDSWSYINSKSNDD
T1 sequence (P26010 20-798): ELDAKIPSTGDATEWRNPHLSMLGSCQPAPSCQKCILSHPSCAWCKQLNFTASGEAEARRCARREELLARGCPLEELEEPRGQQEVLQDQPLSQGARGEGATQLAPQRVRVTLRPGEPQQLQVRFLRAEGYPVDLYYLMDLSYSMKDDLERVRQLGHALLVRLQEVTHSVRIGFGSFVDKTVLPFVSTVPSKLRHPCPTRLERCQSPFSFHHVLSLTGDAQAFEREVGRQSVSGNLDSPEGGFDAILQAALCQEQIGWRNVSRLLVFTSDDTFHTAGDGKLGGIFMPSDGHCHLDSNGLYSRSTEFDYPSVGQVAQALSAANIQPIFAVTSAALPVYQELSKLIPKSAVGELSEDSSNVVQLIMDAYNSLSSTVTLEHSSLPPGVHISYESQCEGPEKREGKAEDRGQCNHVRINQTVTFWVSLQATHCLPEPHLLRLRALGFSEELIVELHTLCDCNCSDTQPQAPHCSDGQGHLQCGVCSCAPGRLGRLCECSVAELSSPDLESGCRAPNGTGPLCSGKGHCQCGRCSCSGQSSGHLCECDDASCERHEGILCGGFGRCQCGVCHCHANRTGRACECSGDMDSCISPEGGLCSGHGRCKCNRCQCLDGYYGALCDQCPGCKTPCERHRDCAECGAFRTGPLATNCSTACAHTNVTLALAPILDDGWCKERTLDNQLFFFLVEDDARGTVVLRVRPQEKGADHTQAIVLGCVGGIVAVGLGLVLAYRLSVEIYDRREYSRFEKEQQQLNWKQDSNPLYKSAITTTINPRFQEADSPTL
Description: In order to assess the VLA-4 inhibitory specificity of the compounds of this invention, assays for other major groups of integrins, i.e., β2and β3, as well as other β1 integrins, such as VLA-5, VLA-6 and α4β7 are performed. These assays may be similar to the adhesion inhibition and direct binding assays described above, substituting the appropriate integrin-expressing cell and corresponding ligand. For example, polymorphonuclear cells (PMNs) express β2 integrins on their surface and bind to ICAM. β3 integrins are involved in platelet aggregation and inhibition may be measured in a standard platelet aggregation assay. VLA-5 binds specifically to Arg-Gly-Asp sequences, while VLA-6 binds to laminin. α4β7 is a recently discovered homologue of VLA-4, which also binds fibronectin and VCAM. Specificity with respect to α4β7 is determined in a binding assay that utilizes the above-described VCAM-IgG-enzyme marker conjugate and a cell line that expresses α4β7, but not VLA-4, such as RPMI-8866 or JY cells.
Binding to α4β7 was assessed on JY cells in the presence of Mn^+2. In the binding assay, VCAM-Ig and oMePUPA-V compete for binding to α4β7 on JY cells (See section 4.1.1 for assay protocol). In the cell adhesion assay, oMePUPA-V was tested for its ability to block JY (α4β7) cell binding to CS1/BSA conjugate

[1] = Formulated / solution stability (HPLC); format: physicochemical
[2] = tested on: Ascaris suum-sensitive sheep; assay: Single dose irritancy, airways resistance after aerosol in sheep; format: in vivo; details: single aerosol doses 0.01-3 mg
Description: FIG. 2: Sheep, naturally sensitive to Ascaris suum, were challenged with an aerosol administration of oMePUPA-V at the doses indicated or an aerosol of Ascaris suum. Changes in airways resistance were measured following aerosol challenge and peak specific lung resistance (cm H2O/sec) after challenge was compared to baseline values. *=p<0.05 compared to PBS control, one-way analysis of variance, followed by Dunnett's test for multiple comparison to a control group. Indicates a statistically significant increase in peak specific lung resistance compared to PBS control group.

VLA-4 = VLA-4 (Homo sapiens, UniProt P05556+P13612); assay: VCAM-Ig Competitive Binding Assay on human PBLs; set-up: endogenous in cells; details: Mn+2
Description: PBLs, were isolated from peripheral blood of humans, sheep and dogs using methods described for sheep PBL (Abraham, W. M. et al. J. Clin. Invest. 93:776-787, 1994). The VCAM-Ig-AP Competitive Binding Assay was used to compare the binding of oMePUPA-V to these different cell types.

VLA-4, sequence (P05556 21-798, one chain of several): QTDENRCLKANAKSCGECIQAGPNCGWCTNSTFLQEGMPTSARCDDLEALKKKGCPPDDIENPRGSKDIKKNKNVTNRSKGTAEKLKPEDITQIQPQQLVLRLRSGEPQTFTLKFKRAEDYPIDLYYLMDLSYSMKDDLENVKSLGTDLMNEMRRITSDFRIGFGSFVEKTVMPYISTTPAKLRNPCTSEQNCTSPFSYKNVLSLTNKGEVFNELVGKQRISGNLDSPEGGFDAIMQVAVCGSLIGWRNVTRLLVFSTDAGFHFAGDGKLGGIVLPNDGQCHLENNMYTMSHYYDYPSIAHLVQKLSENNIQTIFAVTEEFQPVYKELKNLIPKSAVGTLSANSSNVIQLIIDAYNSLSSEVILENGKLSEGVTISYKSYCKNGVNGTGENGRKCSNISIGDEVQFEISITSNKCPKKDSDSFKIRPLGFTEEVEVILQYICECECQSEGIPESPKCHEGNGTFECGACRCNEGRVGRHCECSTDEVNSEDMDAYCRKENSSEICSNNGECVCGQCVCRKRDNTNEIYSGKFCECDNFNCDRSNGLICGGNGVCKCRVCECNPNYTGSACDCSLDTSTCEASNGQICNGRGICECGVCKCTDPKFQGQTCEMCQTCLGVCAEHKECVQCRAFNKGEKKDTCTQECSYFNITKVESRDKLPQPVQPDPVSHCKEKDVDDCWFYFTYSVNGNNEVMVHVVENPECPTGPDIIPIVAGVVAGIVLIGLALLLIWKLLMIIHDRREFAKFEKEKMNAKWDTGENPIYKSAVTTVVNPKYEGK

SMILES: Cc1ccccc1NC(=O)Nc1ccc(CC(=O)N2CCC[C@H]2C(=O)N[C@H](C)CC(=O)O)cc1 [oMePUPA-V]
- measurable activity against α4β7 (α4β7): > 100 µM
- inhibition at 100 µM (α4β7; @ 100 μM, Mn+2, read-out: inhibition, JY (α4β7) VCAM-Ig DBA): 3%
- blocking of α4β7 binding to VCAM-Ig (in words) (α4β7; JY cells, Mn+2): does not block
- IC50 (α4β7; read-out: IC50 against α4β7-VCAM-Ig binding): > 100000 nM
- Formulated stability (40° C.), time stable [1]: stable >4 wk
- irritant effect, change in airways resistance compared to baseline [2]: lack of change in airways resistance compared to baseline resistance
- IC50 (VLA-4): 6 ± 1 nM
